Columns and labels:
[1] = system: human liver graft
Protocol: A human liver graft was perfused for 8 days, after being discarded from all Swiss transplant centers. Use of discarded grafts was approved by local authorities (Kantonale Ethik Kommission Zürich KEK Nr. 2017-000412). […] The liver was procured with a total ischemia time of 40 min after circulatory death of the donor. It was flushed with IGL-1 solution and perfused for 2 h with Belzer MPS at 8°C. The infrahepatic vena cava was closed with a suture and the hepatic artery, portal vein, suprahepatic vena cava and common bile duct were cannulated with steel cannulas. The graft was subsequently perfused with whole blood and a custom built normothermic perfusion machine (Eshmuminov,D. et al, Nat Biotechnol 38, (2020)). Hepatic arterial pressure was controlled to be 80/50 mmHg, allowing for an average flow of 0.25 L/min. A vasodilator, epoprostenol, was automatically infused to keep arterial flow stable. Oxygenation was automatically controlled with a setpoint partial pressure of oxygen equal to 12 kPa. Portal venous flow was controlled to be at 1 L/min, resulting in a pressure of 2 mmHg on average. Further, oxygenation of portal blood was automatically regulated to achieve 65% saturation in the vena cava. Use of an electric pinch valve further allowed for pressure regulation in the vena cava, keeping a constant pressure of 0 mmHg. Glucose levels were automatically controlled by using a real-time glucose sensor (CCIT) and automated insulin infusions, keeping glucose levels at 7 mmol/L from the second day of perfusion onwards. A dialysis bypass was used to clear waste metabolites and control haematocrit levels by using a fixed dialysate influx rate of 200 mL/h and an automatically controlled outflux. […] After 8 days of perfusion, the liver weight decreased to 1507g (without gallbladder) and was sent for pathological examination.
Perfusate was mixed with 6 units of red blood cell concentrate (A+), 5 units of fresh frozen […], one unit of thrombocytes and 200 mL of 20% human albumin (CSL Behring). An initial bolus of 2.25 g Tazobactam and 500 mg Methylprednisolone was administered after priming. During the perfusion, 1000 U of heparin were infused per hour. Further, 2.25 g of Tazobactam, 3.36 g of ursodesoxycholic acid and 500 mg of methylprednisolone were continuously infused per day. UCB9608 was administered as a daily bolus by adding 300 µL of 50 mM solution directly to the blood reservoir, targeting a final concentration in the perfusate of 10 µM. On the first day, a larger bolus of 600 µL was given.
Adipose depots, liver pieces, differentiated iBAs, HepG2, HEK293T and HEK293-AAV cell types were homogenized in RIPA buffer (50 mM Tris-HCl pH 7.4, 150 mM NaCl, 2 mM EDTA, 1.0% Triton X100, 0.5% sodium deoxycholate) with protease inhibitors (Complete, Roche) and phosphatase inhibitors (Halt phosphatase inhibitor cocktail, ThermoFisher). The homogenates were centrifuged at 12,000×g for 10 min at 4°C to remove debris and collect whole cell extract (WCE). The concentration of WCE was determined by DC Protein Assay (Bio-Rad). After boiling the sample with Lämmeli buffer at 95°C for 5 min, equal amount of proteins was loaded and separated on 12% SDS-PAGE. […]

[2] = system: mouse model with organ engraftment; conditions: in vivo; cited from earlier work
[3] = biopsies from both lobes, unchanged in the two control grafts

COc1ccc(NC(=O)N2CCN(c3nc(N)nc4c3cnn4C)[C@@H](C)C2)c(C)c1 [UCB9608]
cell viability (ATP analysis and histology) [1]: remained until the end of perfusion | time liver function was well preserved [1]: at least 6 days | liver weight after perfusion ([1]; after 8 days, without gallbladder, initial weight 2740g with gall bladder): 1507 g | macrovesicular steatosis after perfusion ([1]; after 8 days, 15% before perfusion, pathological examination): less than 5% | ATGL levels in liver biopsies [1, 3]: substantially elevated | TG deposition in liver biopsies [1, 3]: reduced | non-esterified fatty acids (NEFAs) from dialysate ([1]; during perfusion, UCB9608 daily, target 10 µM): detected | efficacy in the mouse model with organ engraftment [2]: effective
